Assay results taken from patent US20110251135A1, “INHIBITORS OF PERITONEAL SEEDING OF CANCER CELLS” (University of Utah Research Foundation, priority 2008, published 2011).

Experiments:
[1] = athymic mice; BAY 11-7085 5 mg/kg IP, 4 doses total
NF-κB in HT-29 cells = experiment: NF-κB ELISA during readhesion; type: cell-based, human; settings: colon and pancreatic cancer readhesion
Excerpt: Untreated adherent monolayers (Control) and Jurkat cells treated with TNFα (Jurkat Control) served as controls. The cells were collected and analyzed for NF-κB activation in an ELISA (see Methods). […] The floating and readherent cells were collected and lysed. Aliquots of the cell lysates were used to generate cleaved PARP immunoblots. All lanes contain equal total protein concentrations and the actin blot served as a loading control. The blots shown are typical of duplicate experiments. […] The floating cells were washed away and the adherent cells were then fixed and stained with crystal violet. The cells were lysed in deoxycholate and the intensity of the staining quantified by spectrophotometry. The results are normalized to the controls.
Nuclear lysates were generated, normalized for total protein concentration, and used to determine NF-κB activity in an ELISA kit (Panomics) per the manufacturer's instructions.

HCT-116 cells = experiment: Intraabdominal seeding model, intraperitoneal injection of colon cancer cells into athymic mice (21 days); type: in vivo, mouse; settings: HCT-116 IP in athymic mice; after 21 days; regardless of vehicle or BAY 11-7085
Excerpt: FIG. 6 is a group of photographs showing an intraabdominal seeding model. FIGS. 6A, B, C show tumor implants of the liver of three athymic mice 21 days after receiving intraperitoneal injections of HT-29 cells. The mice were pretreated and treated for a total of 21 days with DMSO twice weekly. […] The mouse was pretreated and treated for a total of 21 days with DMSO twice weekly. FIG. 6E is a micrograph showing tumor invasion through the liver capsule. This section was obtained from the tumor implant from the mouse in FIG. 6A. […] FIG. 6G, (liver), FIG. 6H, (abdominal wall), and FIG. 6I, (intestinal) show tumor implants in three athymic mice 21 days after receiving intraabdominal injections of HCT-116 cells. All of the mice were treated with 5 mg/kg of BAY 11-7085 twice weekly.
HT-29 and HCT-116 cells were harvested in 0.25% trypsin-PBS-EDTA, washed once in media and PBS, and resuspended in PBS at 1 million cells per 200 μL. […] Subcutaneous tumor sizes were determined by measuring the length and width with calipers. […]
During colorectal cancer surgery, seeding of the peritoneal cavity by tumor cells with tumor cell implantation of the peritoneal surfaces can occur. Seeding results from the transient suspension of cancer cells, through a loss of adhesion either naturally ro because of surgical displacement, followed by readhesion to other tissues. […]

[2] = test system: pancreatic (Su.86, PL-45) and colon cancer cells (HT-29); experiment: Cleaved PARP western blot during readhesion; type: cell-based, human; settings: 10-20 μM BAY 11-7085; 8 hours
Experimental: FIG. 10 is a graph showing that BAY 11-7085 induces apoptosis of pancreatic and colon cancer cells during readhesion. Pancreatic (Su.86, PL-45) and colon cancer cells (HT-29) were transiently suspended and allowed to readhere in the presence or absence of vehicle or various concentrations of BAY 11-7085 for 8 hours. The floating and adherent cells were collected and lysed. Western blots for cleaved PARP were performed to determine if the cells were undergoing apoptosis (FIG. 10A). Transiently suspended pancreatic cancer cells ([…] per well) were allowed to readhere in the presence of vehicle or various concentrations of BAY 11-7085 for 24 hours. Nonadherent apoptotic cells were washed away and the remaining adherent cells stained with crystal violet and then dried. The crystal violet stained cells were lysed and the absorbance read in a plate spectrophotometer (FIG. 10B). […] The results are expressed as a percentage of cells surviving compared with vehicle alone.
BxPc-3, PL-45, Su.86.86 and HT-29 cells were transiently suspended and treated in vitro with varying concentrations of BAY 11-7085 or DMSO for four to eight hours. […] The degree of apoptosis was determined by western blotting for cleaved PARP.

## CC(C)(C)c1ccc(S(=O)(=O)/C=C/C#N)cc1 [BAY 11-7085, (2E)-3-[4-(tertiarybutylphenyl)sulfonyl]-2-propenenitrile]
[1]
  deaths / overt signs of toxicity: None of the mice died or showed overt signs of toxicity
NF-κB in HT-29 cells
  NF-κB inhibitor potency on a molar basis (comparison): more potent NF-κB inhibitor than rosiglitazone
HCT-116 cells
  metastases of parietal and visceral peritoneum: clear evidence of metastases
[2]
  apoptosis (cleaved PARP levels) during cell readhesion: increased apoptosis (cleaved PARP levels)
